Results from patent publication US20090280160A1, “PHENYLEPHRINE PHARMACEUTICAL FORMULATIONS AND COMPOSITIONS FOR TRANSMUCOSAL ABSORPTION” (Schering-Plough Healthcare Products, Inc., priority 2007, published 2009).
Entries after “also recorded” stand apart in the source; their conditions may differ.

Columns and labels:
[1] = cited from earlier work
[2] = in vivo; cited from earlier work
[3] = target: T1, α1a adrenoreceptor (Homo sapiens, UniProt P35348); assay: Cellular calcium flux (FLIPR), α1a expressing CHO cells; assay type: cell-based; conditions: α1a expressing CHO cells
T1 construct: expressed in transfected cells
T1 sequence (P35348 1-466): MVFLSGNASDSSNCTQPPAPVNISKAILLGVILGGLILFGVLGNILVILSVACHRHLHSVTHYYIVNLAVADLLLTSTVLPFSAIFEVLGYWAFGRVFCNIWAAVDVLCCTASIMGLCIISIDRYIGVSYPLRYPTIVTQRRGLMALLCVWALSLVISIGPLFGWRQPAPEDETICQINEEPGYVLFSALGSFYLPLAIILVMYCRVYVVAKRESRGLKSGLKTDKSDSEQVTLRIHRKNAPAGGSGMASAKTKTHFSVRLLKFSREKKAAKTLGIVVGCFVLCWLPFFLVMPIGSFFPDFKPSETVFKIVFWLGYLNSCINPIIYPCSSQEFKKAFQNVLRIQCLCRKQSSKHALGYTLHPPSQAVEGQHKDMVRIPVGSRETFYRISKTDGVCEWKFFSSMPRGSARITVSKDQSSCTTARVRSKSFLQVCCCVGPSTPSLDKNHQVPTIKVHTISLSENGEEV
Experimental: (§1) The affinity and activity of phenylephrine metabolites were evaluated in human recombinant α1 and α2 adrenoreceptor binding and activity assays. […] Affinity of the metabolites was determined by receptor binding assays. Functional activity of the metabolites was assessed using an [^35S]-GTPγS binding exchange assay for the α2 receptor subtypes and a cell-based calcium flux response for the α1 receptor subtypes.
(§2) Intracellular calcium levels were measured using a fluorometric imaging plate reader (FLIPR). Cells expressing α1 adrenoreceptors were cultured overnight at 15,000 cells/well in 96 well black-wall clear bottom plates (Packard). Adherent cells were loaded for 1 hour at 37° C. using the FLIPR Calcium Plus Assay Kit (Molecular Probes, Eugene, Oreg.), which included 2.5 mM probenecid (Sigma). Compounds (at 10 mM in 100% DMSO) were diluted in diluting buffer (HBSS, 20 mM HEPES, 2.5 mM probenecid, 0.5% BSA, pH 7.4). A titration of norepinephrine was included in every experiment and norepinephrine (at 1 μM) was also used as a plate standard on each assay plate. Cells were maintained at 37° C. throughout all calcium measurements. Fluorescence data was collected at 1 second interval for 60 seconds, followed by collection at 2 second intervals for 30 seconds. Background fluorescence was quantitated in wells containing cells with no additions and was subtracted from all experimental samples. All conditions were done in quadruplicate. Non-linear regression analysis using GraphPad Prism was used to calculate EC50 values.
(§3) Each metabolite was evaluated in each assay in at least 2 independent experiments and a representative assay of each metabolite/assay combination is shown.

[4] = target: T2, α1b adrenoreceptor (Homo sapiens, UniProt P35368); assay: Cellular calcium flux (FLIPR), α1b expressing CHO cells; assay type: cell-based; conditions: α1b expressing CHO cells
T2 construct: expressed in transfected cells
T2 sequence (P35368 1-520): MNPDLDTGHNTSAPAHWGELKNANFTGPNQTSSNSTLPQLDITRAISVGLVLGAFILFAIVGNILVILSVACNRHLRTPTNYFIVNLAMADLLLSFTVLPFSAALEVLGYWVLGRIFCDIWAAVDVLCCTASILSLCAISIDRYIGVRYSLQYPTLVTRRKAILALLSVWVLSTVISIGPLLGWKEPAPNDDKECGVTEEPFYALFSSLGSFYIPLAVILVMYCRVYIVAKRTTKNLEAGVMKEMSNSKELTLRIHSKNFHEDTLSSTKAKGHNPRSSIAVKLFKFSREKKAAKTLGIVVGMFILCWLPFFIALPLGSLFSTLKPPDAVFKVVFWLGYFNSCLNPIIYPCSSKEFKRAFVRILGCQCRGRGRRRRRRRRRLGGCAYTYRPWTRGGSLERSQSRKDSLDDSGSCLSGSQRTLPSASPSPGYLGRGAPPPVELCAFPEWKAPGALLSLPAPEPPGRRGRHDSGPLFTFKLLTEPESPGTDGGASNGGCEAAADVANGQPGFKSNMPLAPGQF
Experimental: as §1, §2, §3

[5] = target: T1, α1a adrenoreceptor; assay: Competition binding, [3H]-prazosin, α1a CHO cell membranes; conditions: for inhibition of 3H-prazosin binding, α1a (in words): CHO cell membranes
[6] = target: T2, α1b adrenoreceptor; assay: Competition binding, [3H]-prazosin, α1b CHO cell membranes; conditions: for inhibition of 3H-prazosin binding, α1b (in words): CHO cell membranes
Experimental: as §1
(§4) Competition Binding Assays
(§5) Competition binding assays for the α2 adrenoreceptors were performed using 20 μg membrane protein per well in binding buffer (75 mM Tris-HCl pH 7.4, 12.5 mM MgCl2, […] EDTA, 0.2% bovine serum albumin). […] Binding was terminated by rapid filtration through GF/C unifilter plates, presoaked with 0.3% polyethylenimine, with five washes with 0.5 ml cold 50 mM Tris-HCl ph 7.4, using a Packard Filtermate Harvester. After drying, bound radioactivity was determined by liquid scintillation counting (Packard TopCount) with Microscint 20, 50 μl/well. Binding data were analyzed using GraphPad Prism.
as §3

[7] = target: T3, α2b adrenoreceptor (Homo sapiens, UniProt P18089); assay: [35S]-GTPγS binding exchange, α2b CHO cell membranes; assay type: biochemical; conditions: for stimulation of [35S]-GTPγS binding, α2b (in words): CHO cell membranes
T3 construct: expressed in transfected cells; host or cells: CHO (Chinese hamster ovary) cells, membranes
T3 sequence (P18089 1-450): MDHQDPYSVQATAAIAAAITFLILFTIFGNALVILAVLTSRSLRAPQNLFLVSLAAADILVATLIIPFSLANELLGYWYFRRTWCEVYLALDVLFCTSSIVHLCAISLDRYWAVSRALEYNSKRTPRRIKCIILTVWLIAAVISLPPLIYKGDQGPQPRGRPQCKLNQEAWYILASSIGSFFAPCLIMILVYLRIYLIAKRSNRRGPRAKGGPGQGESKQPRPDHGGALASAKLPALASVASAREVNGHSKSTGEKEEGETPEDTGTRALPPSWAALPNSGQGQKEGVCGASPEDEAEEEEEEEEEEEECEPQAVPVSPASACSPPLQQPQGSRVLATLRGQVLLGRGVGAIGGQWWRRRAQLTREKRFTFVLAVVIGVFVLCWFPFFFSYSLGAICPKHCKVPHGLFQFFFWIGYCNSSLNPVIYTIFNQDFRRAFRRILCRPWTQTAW
Experimental: as §1
(§6) Assay buffer was 75 mM Tris-HCl pH 7.4, 12.5 mM MgCl2, 2 mM EDTA and 1 μM GDP. Plates were counted on a Packard TopCount. The percent increase over basal binding of [^35S]-GTPγS, a measure of efficacy, was calculated as follows: 100×[[mean total sample cpm−basal cpm]÷by basal cpm]. Basal cpm was defined as the mean cpm in the absence of agonist compound minus the mean non-specific binding cpm.
as §3

[8] = target: T4, α2c adrenoreceptor (Homo sapiens, UniProt P18825); assay: [35S]-GTPγS binding exchange, α2c CHO cell membranes; assay type: biochemical; conditions: for stimulation of [35S]-GTPγS binding, α2c (in words): CHO cell membranes
T4 construct: expressed in transfected cells; host or cells: CHO (Chinese hamster ovary) cells, membranes
T4 sequence (P18825 1-462): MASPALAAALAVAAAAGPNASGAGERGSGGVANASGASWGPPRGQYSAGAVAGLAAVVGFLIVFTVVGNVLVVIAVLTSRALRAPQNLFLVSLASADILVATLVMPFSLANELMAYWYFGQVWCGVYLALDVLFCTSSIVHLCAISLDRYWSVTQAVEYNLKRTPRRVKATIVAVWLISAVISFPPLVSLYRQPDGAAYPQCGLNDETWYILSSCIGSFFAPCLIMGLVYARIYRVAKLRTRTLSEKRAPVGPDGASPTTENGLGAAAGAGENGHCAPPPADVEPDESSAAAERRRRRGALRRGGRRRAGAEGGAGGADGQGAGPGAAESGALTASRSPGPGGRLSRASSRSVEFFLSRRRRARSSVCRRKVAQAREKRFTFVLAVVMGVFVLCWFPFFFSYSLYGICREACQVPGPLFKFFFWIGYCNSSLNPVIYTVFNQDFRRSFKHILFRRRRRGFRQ
Experimental: as §1, §6, §3

[9] = target: T3, α2b adrenoreceptor; assay: Competition binding, [3H]-UK14304, α2b CHO cell membranes; conditions: for inhibition of [3H]-UK14304 binding, α2b (in words): CHO cell membranes
Experimental: as §1, §4, §5, §3

[10] = target: T4, α2c adrenoreceptor; assay: Competition binding, [3H]-UK14304, α2c CHO cell membranes; conditions: for inhibition of [3H]-UK14304 binding, α2c (in words): CHO cell membranes
Experimental: as §1, §4, §5, §3

[11] = oral, approximately 24 mg of PE, healthy volunteers; cited from earlier work
[12] = listed as phenylephrine sulfate
[13] = at 100 μM (highest concentration evaluated)

Row | Compound | half-life (t1/2) / elimination half-life [2] [h] | increase in intracellular calcium, α1a calcium assay (in words) [3] | increase in intracellular calcium, α1b calcium assay (in words) [4] | inhibition of 3H-prazosin binding, α1a (in words) [5] | inhibition of 3H-prazosin binding, α1b (in words) [6] | stimulation of [35S]-GTPγS binding, α2b (in words) [7] | stimulation of [35S]-GTPγS binding, α2c (in words) [8] | inhibition of [3H]-UK14304 binding, α2b (in words) [9] | inhibition of [3H]-UK14304 binding, α2c (in words) [10] | also measured
1 | C[C@@H]1CN([C@H]2CC[C@](C#N)(c3ccc(F)cc3)CC2)CC[C@]1(C(=O)O)c1ccccc1 [Levocabastine] | – | – | – | – | – | – | – | – | – | duration of action ([1]; in vivo): 16 to 24 h
2 | CN1CCC(=C2c3ccccc3CCc3cccnc32)CC1 [Azatadine] | 9 to 12 | – | – | – | – | – | – | – | – | –
3 | (R)-PE sulfate | – | no and A very low level of activity | minimal activity; also recorded: A very low level of activity | No appreciable binding | No appreciable binding | No activity | No activity | no appreciable binding | but not; also recorded: no appreciable binding | increase in intracellular calcium, α1a calcium assay (in words) [3, 12]: induces minimal intracellular calcium increases; increase in intracellular calcium, α1b calcium assay (in words) [4, 12]: induces minimal intracellular calcium increases; binding / affinity, α1a receptor (in words) ([5]; concentrations up to 100 μM): no affinity; Ki ([6]; [3H]-prazosin, read-out: Ki, a1b Binding (class symbol)): > 100 µM; binding / affinity, α1b receptor (in words) ([6]; concentrations up to 100 μM): no affinity; activity in α2b [35S]-GTPγS assay (in words) ([7]; highest concentration, 100 μM): no activity; activity in α2c [35S]-GTPγS assay (in words) ([8]; highest concentration, 100 μM): no activity; Ki ([9]; [3H]-UK14304, read-out: Ki, a2b Binding (class symbol)): > 100 µM; binding / affinity, α2b receptor (in words) [9, 13]: very minimal binding; also recorded: no affinity; Ki ([10]; [3H]-UK14304, read-out: Ki, a2c Binding (class symbol)): > 100 µM; binding / affinity, α2c receptor (in words) [10, 13]: very minimal binding; also recorded: no affinity; metabolite excreted in the urine [11]: 47 % of dose
4 | CCOC(=O)N1CCC(=C2c3ccc(Cl)cc3CCc3cccnc32)CC1 [loratadine] | – | – | – | – | – | – | – | – | – | time to begin to elicit antihistaminic effect ([1]; exemplary conventional formulation): 1 to 3 h
5 | CNC[C@H](O)c1cccc(O)c1 [PE, (R)-(−)-phenylephrine, reference compound] | – | increases intracellular calcium | increases intracellular calcium | inhibits binding | inhibits binding | stimulates [^35S]-GTPγS binding | stimulates [^35S]-GTPγS binding | inhibits [^3H]-UK14304 binding | inhibits [^3H]-UK14304 binding | –
6 | Clc1ccc2c(c1)CCc1cccnc1C2=C1CCNCC1 [desloratadine] | 15 to 19 | – | – | – | – | – | – | – | – | –
